The text below walks through data of patent publication US20240189269A1, “PHARMACEUTICAL COMPOSITION FOR SUPPRESSING TMPRSS2 EXPRESSION” (Tokyo Institute of Technology, priority 2021, published 2024).

The experiment relates to ACE2. As to the kind of experiment: Western blot analysis of amount of ACE2 protein expressed in HepG2 cells. Type of experiment: cell-based, human. To be noted: compared to control (untreated). On the procedure: (i) Human liver cancer-derived cell strain HepG2 was cultured for 2 days with Dulbecco's modified Eagle medium (DMEM) comprising 10% fetal bovine serum (FBS) under 5% CO2.
(ii) After 2 days, 5-aminolevulinic acid hydrochloride salt (ALA) was supplemented to the DMEM comprising FBS to a final concentration of 1 mM, and the cells of (i) were cultured in said medium at 37° C. for 48 hours. Note that those without any supplements was set as the control.
(iii) After 48 hours, the cell supernatant was discarded, the cells were washed with PBS, and then Lysis buffer A (+) (50 mM Tris-HCl (pH 7.4), 20 mM N-methylmaleimide, 1 mM DTT, 1% (v/v) Triton X-100, and Protease inhibitor cocktail) was added, and the cell lysate was collected. Homogenization and centrifugation (3,000 rpm, 10 minutes, 4 °C) were then performed, and the residue was removed. A part of the cell lysate collected was quantified for proteins with the Bradford method, and the remainder was mixed with SDS sample buffer (50 mM Tris-HC1, pH 6.8, 2% SDS, 2.5% mercaptoethanol, 10% glycerol, 0.01% bromophenol blue), and stored frozen at −30° C. The prepared sample was subjected to 7.5% SDS-polyacrylamide electrophoresis, the 7.5% SDS-polyacrylamide gel after electrophoresis was transferred to a membrane, and the transfer was confirmed with
Ponceau S solution. After the transfer was confirmed, Western blot analysis employing rabbit anti-human ACE2 antibody (Abcom, ab108252) and HRP-labeled anti-rabbit IgG secondary antibody (Cell Signaling Technology, 7074S) was performed by conventional means.
As internal standards, each sample was subjected to 7.5% SDS-polyacrylamide electrophoresis, the 7.5% SDS-polyacrylamide gel after electrophoresis was transferred to a membrane, and the transfer was confirmed with Ponceau S solution. After the transfer was confirmed, Western blot analysis employing mouse anti-human actin antibody (MP biomedicals, 691001) and HRP-labeled anti-mouse IgG secondary antibody (Cell Signaling Technology, 7076S) was performed by conventional means. […]

Turning to `Cl.NCC(=O)CCC(=O)O` [ALA, 5-aminolevulinic acid hydrochloride salt], the “amount of ACE2 protein expressed” value by setting is: (Experiment 1, ALA 1 mM, 48 hours) “significantly reduced”; (Experiment 2, ALA 1 mM) “reduced”.
On to sodium ferrous citrate [SFC], for which the “amount of ACE2 protein expressed” value (Experiment 2, SFC only 0.5 mM) was “no reduction”.
